From US20260200882A1, “NOVEL FIVE-MEMBERED HETEROCYCLE SUBSTITUTED STYRENE DERIVATIVE, AND PREPARATION METHOD THEREFOR AND USE THEREOF” (Guangzhou Nanocrystal Biotechnology Co., Ltd., priority 2022, published 2026)

Columns and labels:
[1] = tested on: LPS-induced NO production in macrophages (RAW264.7); test: Inhibition of LPS-induced NO production in macrophages; format: cell-based, mouse; parameters: dose or concentration left out as unconfirmed; details: LPS-induced RAW264.7, 24 h
Experimental: In this test example, the styrene derivatives prepared by embodiments 2-20 were tested for their toxicities to mouse macrophages (RAW264.7). The nitric oxide (NO) inhibition assays using lipopolysaccharide (LPS)-induced RAW264.7 cells were also performed to evaluate their anti-inflammatory activities (Test methods refer to Zhou W. et al. Biomed Pharmacother 2020, 131:110696.).
(2) Inhibition of LPS-Induced NO Production Activity in Macrophages was Tested (the Test Method Refers to Biomed Pharmacother. 2020 November; 131:110696):
Mouse macrophages (RAW264.7) were taken, inoculated into 96-well plates ([…]) at a concentration of 5×10^5/mL and cultured in a 5% CO2 incubator at 37° C. for 18 h. Then, the compound (final concentration: […]) and LPS (final concentration: 5 µg/mL) were added into a cell culture solution and cultured at 37° C. for 24 h. Then, the supernatant of the cell culture solution was taken and placed into a new 96-well plate by 50 µL per well; and then 50 µL of solution A and 50 µL of solution B of a Beyotime NO kit were added.
After culturing in the incubator at 37° C. for 10 min, the absorbance (OD value) at 540 nm was tested.

[2] = tested on: Mouse macrophages (RAW264.7); test: Toxicity to macrophages by MTT method; format: cell-based; details: RAW264.7, MTT, 48 h culture with compound
Experimental: (1) the Toxicity to Macrophages was Tested by MTT Method:
Mouse macrophages (RAW264.7) were taken, inoculated into 96-well plates ([…]) at a concentration of 3×10^4/mL and cultured in an incubator of 5% CO2 at 37° C. for 18 h. After the cells adhered to the wall, the supernate was discarded and compounds of different concentrations were added to continue the culture for 48 h. 0.5 mg/mL of MTT was added. After continued culture for 4 h, […] of DMSO was added to each well, and then shaken on a shaker for 10 min. Absorbance (OD value) at 570 nm was measured by a microplate reader, and IC50 was calculated by Prism software.

| Compound | Inhibitory activity against nitric oxide production (%) [1] [%] | IC50 ([2]; Mus musculus) [nM] | IC50 [2] [nM] |
| --- | --- | --- | --- |
| CC(C)c1c(O)cc(/C=C/c2ccoc2)cc1O [No 2] | <50 | > 1000 | – |
| CC(C)c1c(O)cc(/C=C/c2cncs2)cc1O [No 3] | >50 | > 1000 | – |
| CC(C)c1c(O)cc(/C=C/c2cscn2)cc1O [No 4] | <50 | > 1000 | – |
| Oc1cc(/C=C/c2ccsc2)cc(O)c1C1CC1 [No 5] | <50 | > 1000 | – |
| Oc1cc(/C=C/c2ccoc2)cc(O)c1C1CC1 [No 6] | <50 | > 1000 | – |
| Oc1cc(/C=C/c2ccsc2)cc(O)c1C1=CCCC1 [No 7] | <50 | > 1000 | – |
| Oc1cc(/C=C/c2cscn2)cc(O)c1C1=CCCC1 [No 9] | <50 | – | > 1000 |
| Oc1cc(/C=C/c2cncs2)cc(O)c1C1=CCCC1 [No 10] | <50 | – | > 1000 |
| Oc1cc(/C=C/c2ccsc2)cc(O)c1C1CCCC1 [No 11] | <50 | > 1000 | – |
| Oc1cc(/C=C/c2cscn2)cc(O)c1C1CCCC1 [No 12] | <50 | > 1000 | – |
| Oc1cc(/C=C/c2ccoc2)cc(O)c1Br [No 13] | <50 | > 1000 | – |
| C=C(C)c1c(O)cc(/C=C/c2cscn2)cc1O [No 16] | <50 | > 1000 | – |
| C=C(C)c1c(O)cc(/C=C/c2cncs2)cc1O [No 17] | <50 | > 1000 | – |
| COc1cc(/C=C/c2ccsc2)cc(O)c1C1CC1 [No 18] | >50 | > 1000 | – |
| COc1cc(/C=C/c2ccsc2)cc(O)c1Br [No 19] | >50 | > 1000 | – |
| COc1cc(/C=C/c2ccoc2)cc(O)c1C(C)C [No 20] | >50 | – | > 1000 |
